From patent US12637478B2, “Compound, preparation method thereof, and antibiotic composition comprising same” (priority 2020, dated 2026)
Values after ≈ are worked out from the molar mass of the structure shown. Read-outs that look alike come from different tables or passages of the source.

Columns and labels:
S. aureus^MS [1] = assay: MIC by broth microdilution (aerobic pathogens), test strain 1; type: cell-based; details: Staphylococcus aureus
Description: (§1) The antibacterial activity of the compounds of Examples 1 to 48 of the present invention against aerobic pathogens were evaluated by measuring the minimum concentration of the antibiotic capable of inhibiting bacterial growth by 90% compared to the growth of the non-drug treated control group. MIC was measured by the broth microdilution method based on CLSI standards [Reference: Clinical and Laboratory Standards Institute Document. (2000) Methods for Dilution Antimicrobial Susceptibility Test for Bacteria that Grow Aerobically-Fifth Edition: M7-A5. CLSI, Villanova, PA].
(§2) All 13 strains such as methicillin susceptible Staphylococcus aureus (MSSA), methicillin resistant Staphylococcus aureus (MRSA), Vancomycin resistant Staphylococcus aureus (VRSA), Staphylococcus epidermidis, methicillin resistant Staphylococcus epidermidis, Enterococcus faecalis, Vancomycin resistant Enterococcus faecalis, Enterococcus faecium, Vancomycin resistant Enterococcus faecium were used.

S. aureus^MS [2] = assay: MIC by broth microdilution (aerobic pathogens), test strain 2; type: cell-based; details: Staphylococcus aureus
Description: as §1, §2

S. epidermis = assay: MIC by broth microdilution (aerobic pathogens), test strain 5; type: cell-based; details: Staphylococcus epidermidis
Description: as §1, §2

S. epidermis^MR = assay: MIC by broth microdilution (aerobic pathogens), test strain 6; type: cell-based, Methicillin resistant Staphylococcus epidermidis; details: Staphylococcus epidermidis; test strain 6, S. epidermis^MR (methicillin resistant); read-out: MIC
Description: as §1, §2

E. faecalis = assay: MIC by broth microdilution (aerobic pathogens), test strain 7; type: cell-based; details: Enterococcus faecalis; test strain 7, E. faecalis; read-out: MIC
Description: as §1, §2

E. faecalis^VanA = assay: MIC by broth microdilution (aerobic pathogens), test strain 8; type: cell-based, Vancomycin resistant Enterococcus faecalis; details: Enterococcus faecalis; test strain 8, E. faecalis^VanA (vancomycin resistant); read-out: MIC
Description: as §1, §2

E. faecalis^LinR = assay: MIC by broth microdilution (aerobic pathogens), test strain 9; type: cell-based, Linezolid resistant Enterococcus faecalis; details: Enterococcus faecalis
Description: as §1, §2

C. difficile 9689 = assay: MIC by agar dilution against Clostridioides difficile, test strain 13; type: cell-based; details: test strain 13, C. difficile 9689, anaerobic, agar dilution, read-out: MIC
C. difficile 152 = assay: MIC by agar dilution against Clostridioides difficile, test strain 14; type: cell-based; details: test strain 14, C. difficile 152, anaerobic, agar dilution, read-out: MIC
C. difficile 161 = assay: MIC by agar dilution against Clostridioides difficile, test strain 16; type: cell-based; details: test strain 16, C. difficile 161, anaerobic, agar dilution, read-out: MIC
C. difficile 173 = assay: MIC by agar dilution against Clostridioides difficile, test strain 17; type: cell-based; details: test strain 17, C. difficile 173, anaerobic, agar dilution, read-out: MIC
C. difficile 174 = assay: MIC by agar dilution against Clostridioides difficile, test strain 18; type: cell-based; details: test strain 18, C. difficile 174, anaerobic, agar dilution, read-out: MIC
C. difficile 181 = assay: MIC by agar dilution against Clostridioides difficile, test strain 19; type: cell-based; details: test strain 19, C. difficile 181, anaerobic, agar dilution, read-out: MIC
E. faecium = assay: MIC by broth microdilution (aerobic pathogens), test strain 10; type: cell-based; details: Enterococcus faecium; test strain 10, E. faecium; read-out: MIC
Description: as §1, §2

C. difficile 159 = assay: MIC by agar dilution against Clostridioides difficile, test strain 15; type: cell-based; details: 159
E. faecium^LinR = assay: MIC by broth microdilution (aerobic pathogens), test strain 12; type: cell-based, Linezolid resistant Enterococcus faecium; details: Enterococcus faecium; test strain 12, E. faecium^LinR (linezolid resistant); read-out: MIC
Description: as §1, §2

[3] = test strain 1, S. aureus^MS, read-out: MIC
[4] = test strain 2, S. aureus^MS, read-out: MIC
[5] = test strain 9, E. faecalis^LinR (linezolid resistant), read-out: MIC
[6] = test strain 5, S. epidermis, read-out: MIC

Structure (SMILES)	MIC (S. aureus^MS [1]; [3]) [µg/mL]	MIC (S. aureus^MS [2]; [4]) [µg/mL]	MIC (S. epidermis^MR) [µg/mL]	MIC (E. faecalis) [µg/mL]	MIC (E. faecalis^LinR; [5]) [µg/mL]	MIC (S. epidermis; [6]) [µg/mL]	also measured
C/C=C1\NC(=O)[C@H]([C@@H](C)O)NC(=O)c2csc(n2)-c2ccc(-c3nc(-c4nc(C(=O)NC5(C(=O)NCCN6CCOCC6)CC5)cs4)cs3)nc2-c2csc(n2)[C@H]([C@@H](C)O)NC(=O)c2csc(n2)[C@H](C(C)C)NC(=O)c2csc1n2 [Compound 2]	1 (≈ 0.834 µM)	1 (≈ 0.834 µM)	0.5 (≈ 0.417 µM)	0.5 (≈ 0.417 µM)	1 (≈ 0.834 µM)		MIC (S. epidermis): 0.25 µg/mL (≈ 0.208 µM); MIC (E. faecalis^VanA): 0.5 µg/mL (≈ 0.417 µM)
C/C=C1\NC(=O)[C@H]([C@@H](C)O)NC(=O)c2csc(n2)-c2ccc(-c3nc(-c4nc(C(=O)NC5(C(=O)NCCCn6cc([N+](=O)[O-])cn6)CC5)cs4)cs3)nc2-c2csc(n2)[C@H]([C@@H](C)O)NC(=O)c2csc(n2)[C@H](C(C)C)NC(=O)c2csc1n2 [Compound 13]							MIC (C. difficile 9689): 0.5 µg/mL (≈ 0.403 µM); MIC (C. difficile 152): 1 µg/mL (≈ 0.807 µM); MIC (C. difficile 161): 0.5 µg/mL (≈ 0.403 µM); MIC (C. difficile 173): 0.5 µg/mL (≈ 0.403 µM); MIC (C. difficile 174): 0.125 µg/mL (≈ 0.101 µM); MIC (C. difficile 181): 0.5 µg/mL (≈ 0.403 µM)
C/C=C1\NC(=O)[C@H]([C@@H](C)O)NC(=O)c2csc(n2)-c2ccc(-c3nc(-c4nc(C(=O)NC5(C(=O)NCCCN6CCN(C7CC7)CC6)CC5)cs4)cs3)nc2-c2csc(n2)[C@H]([C@@H](C)O)NC(=O)c2csc(n2)[C@H](C(C)C)NC(=O)c2csc1n2 [Compound 15]	1 (≈ 0.798 µM)	1 (≈ 0.798 µM)	1 (≈ 0.798 µM)	1 (≈ 0.798 µM)	0.5 (≈ 0.399 µM)	1 (≈ 0.798 µM)	MIC (E. faecium): 1 µg/mL (≈ 0.798 µM)
C/C=C1\NC(=O)[C@H]([C@@H](C)O)NC(=O)c2csc(n2)-c2ccc(-c3nc(-c4nc(C(=O)NC5(C(=O)NCCCN6C(=O)CN(CCC(=O)OC)C6=O)CC5)cs4)cs3)nc2-c2csc(n2)[C@H]([C@@H](C)O)NC(=O)c2csc(n2)[C@H](C(C)C)NC(=O)c2csc1n2 [Compound 16]							MIC (S. aureus^MS [1]): 1 µg/mL (≈ 0.762 µM); MIC (S. aureus^MS [2]): 0.5 µg/mL (≈ 0.381 µM); MIC (E. faecalis^LinR): 0.25 µg/mL (≈ 0.19 µM); MIC (C. difficile 159): 0.5 µg/mL (≈ 0.381 µM)
C/C=C1\NC(=O)[C@H]([C@@H](C)O)NC(=O)c2csc(n2)-c2ccc(-c3nc(-c4nc(C(=O)NC5(C(=O)NCCCNC6COC6)CC5)cs4)cs3)nc2-c2csc(n2)[C@H]([C@@H](C)O)NC(=O)c2csc(n2)[C@H](C(C)C)NC(=O)c2csc1n2 [Compound 17]	1 (≈ 0.834 µM)	1 (≈ 0.834 µM)					
C/C=C1\NC(=O)[C@H]([C@@H](C)O)NC(=O)c2csc(n2)-c2ccc(-c3nc(-c4nc(C(=O)NC5(C(=O)NCCCN6C(=O)CN(CCC(=O)O)C6=O)CC5)cs4)cs3)nc2-c2csc(n2)[C@H]([C@@H](C)O)NC(=O)c2csc(n2)[C@H](C(C)C)NC(=O)c2csc1n2 [Compound 19]							MIC (S. aureus^MS [1]): 0.5 µg/mL (≈ 0.385 µM)
C/C=C1\NC(=O)[C@H]([C@@H](C)O)NC(=O)c2csc(n2)-c2ccc(-c3nc(-c4nc(C(=O)NC5(C(=O)NCCCCCB(O)O)CC5)cs4)cs3)nc2-c2csc(n2)[C@H]([C@@H](C)O)NC(=O)c2csc(n2)[C@H](C(C)C)NC(=O)c2csc1n2 [Compound 21]	0.25 (≈ 0.208 µM)	0.125 (≈ 0.104 µM)			0.5 (≈ 0.417 µM)		MIC (C. difficile 9689): 0.25 µg/mL (≈ 0.208 µM); MIC (C. difficile 152): 0.25 µg/mL (≈ 0.208 µM); MIC (C. difficile 173): 0.5 µg/mL (≈ 0.417 µM); MIC (C. difficile 174): 0.25 µg/mL (≈ 0.208 µM); MIC (C. difficile 181): 1 µg/mL (≈ 0.833 µM)
C/C=C1\NC(=O)[C@H]([C@@H](C)O)NC(=O)c2csc(n2)-c2ccc(-c3nc(-c4nc(C(=O)NC5(C(=O)NCCCn6c(=O)[nH]cc([N+](=O)[O-])c6=O)CC5)cs4)cs3)nc2-c2csc(n2)[C@H]([C@@H](C)O)NC(=O)c2csc(n2)[C@H](C(C)C)NC(=O)c2csc1n2 [Compound 22]	0.25 (≈ 0.195 µM)	0.125 (≈ 0.0974 µM)			0.5 (≈ 0.39 µM)		MIC (C. difficile 9689): 0.125 µg/mL (≈ 0.0974 µM); MIC (C. difficile 152): 0.125 µg/mL (≈ 0.0974 µM); MIC (C. difficile 173): 0.5 µg/mL (≈ 0.39 µM); MIC (C. difficile 174): 0.125 µg/mL (≈ 0.0974 µM)
C/C=C1\NC(=O)[C@H]([C@@H](C)O)NC(=O)c2csc(n2)-c2ccc(-c3nc(-c4nc(C(=O)NC5(C(=O)NCCN6CCN(CCC(=O)OC)CC6)CC5)cs4)cs3)nc2-c2csc(n2)[C@H]([C@@H](C)O)NC(=O)c2csc(n2)[C@H](C(C)C)NC(=O)c2csc1n2 [Compound 24]	0.5 (≈ 0.389 µM)	1 (≈ 0.778 µM)	1 (≈ 0.778 µM)	1 (≈ 0.778 µM)	1 (≈ 0.778 µM)	0.25 (≈ 0.195 µM)	
C/C=C1\NC(=O)[C@H]([C@@H](C)O)NC(=O)c2csc(n2)-c2ccc(-c3nc(-c4nc(C(=O)NC5(C(=O)NCCN)CC5)cs4)cs3)nc2-c2csc(n2)[C@H]([C@@H](C)O)NC(=O)c2csc(n2)[C@H](C(C)C)NC(=O)c2csc1n2 [Compound 25]							MIC (S. aureus^MS [1]): 1 µg/mL (≈ 0.885 µM); MIC (S. aureus^MS [2]): 1 µg/mL (≈ 0.885 µM)
C/C=C1\NC(=O)[C@H]([C@@H](C)O)NC(=O)c2csc(n2)-c2ccc(-c3nc(-c4nc(C(=O)NC5(C(=O)NCCCCCCB(O)O)CC5)cs4)cs3)nc2-c2csc(n2)[C@H]([C@@H](C)O)NC(=O)c2csc(n2)[C@H](C(C)C)NC(=O)c2csc1n2 [Compound 27]	0.25 (≈ 0.206 µM)	0.5 (≈ 0.412 µM)			0.5 (≈ 0.412 µM)		
C/C=C1\NC(=O)[C@H]([C@@H](C)O)NC(=O)c2csc(n2)-c2ccc(-c3nc(-c4nc(C(=O)NC5(C(=O)NCCN6CCN(CCCC#N)CC6)CC5)cs4)cs3)nc2-c2csc(n2)[C@H]([C@@H](C)O)NC(=O)c2csc(n2)[C@H](C(C)C)NC(=O)c2csc1n2 [Compound 31]	0.5 (≈ 0.395 µM)	1 (≈ 0.79 µM)	0.5 (≈ 0.395 µM)	1 (≈ 0.79 µM)		0.25 (≈ 0.198 µM)	MIC (E. faecalis^VanA): 1 µg/mL (≈ 0.79 µM)
C/C=C1\NC(=O)[C@H]([C@@H](C)O)NC(=O)c2csc(n2)-c2ccc(-c3nc(-c4nc(C(=O)NC5(C(=O)NCCN6CCN(C7CC7)CC6)CC5)cs4)cs3)nc2-c2csc(n2)[C@H]([C@@H](C)O)NC(=O)c2csc(n2)[C@H](C(C)C)NC(=O)c2csc1n2 [Compound 33]	1 (≈ 0.807 µM)		0.5 (≈ 0.404 µM)		0.5 (≈ 0.404 µM)	1 (≈ 0.807 µM)	
C/C=C(\NC(=O)c1csc(-c2csc(-c3ccc4c(n3)-c3csc(n3)[C@H]([C@@H](C)O)NC(=O)c3csc(n3)[C@H](C(C)C)NC(=O)c3csc(n3)/C(=C/C)NC(=O)[C@H]([C@@H](C)O)NC(=O)c3csc-4n3)n2)n1)C(=O)NCCCN1CCN(C(C)C)CC1 [Compound 34]	0.5 (≈ 0.399 µM)	1 (≈ 0.797 µM)	0.5 (≈ 0.399 µM)	1 (≈ 0.797 µM)		0.25 (≈ 0.199 µM)	MIC (E. faecalis^VanA): 1 µg/mL (≈ 0.797 µM)
C/C=C1\NC(=O)[C@H]([C@@H](C)O)NC(=O)c2csc(n2)-c2ccc(-c3nc(-c4nc(C(=O)NC5(C(=O)NCCN6C(=O)CSC6=O)CC5)cs4)cs3)nc2-c2csc(n2)[C@H]([C@@H](C)O)NC(=O)c2csc(n2)[C@H](C(C)C)NC(=O)c2csc1n2 [Compound 36]	0.25 (≈ 0.203 µM)	0.5 (≈ 0.407 µM)	0.5 (≈ 0.407 µM)	0.5 (≈ 0.407 µM)		0.5 (≈ 0.407 µM)	MIC (E. faecium^LinR): 1 µg/mL (≈ 0.813 µM)
C/C=C1\NC(=O)[C@H]([C@@H](C)O)NC(=O)c2csc(n2)-c2ccc(-c3nc(-c4nc(C(=O)NC5(C(=O)NCc6ncc([N+](=O)[O-])n6C)CC5)cs4)cs3)nc2-c2csc(n2)[C@H]([C@@H](C)O)NC(=O)c2csc(n2)[C@H](C(C)C)NC(=O)c2csc1n2 [Compound 44]							MIC (C. difficile 9689): 0.5 µg/mL (≈ 0.408 µM); MIC (C. difficile 152): 0.25 µg/mL (≈ 0.204 µM); MIC (C. difficile 161): 0.25 µg/mL (≈ 0.204 µM); MIC (C. difficile 173): 0.5 µg/mL (≈ 0.408 µM); MIC (C. difficile 174): 0.5 µg/mL (≈ 0.408 µM); MIC (C. difficile 181): 0.5 µg/mL (≈ 0.408 µM)
